Reference: patent US20030176431A1 (priority 1997, published 2003)
Where two headings read alike, the source gives them in different places.

Assays:
BVDV (strain NADL) = test: Cell culture assay for inhibition of BVDV replication (cytopathic effect, crystal violet); format: cell-based, bovine viral diarrhea virus
Description: The replication of many viruses may be quantitatively assessed in the laboratory in various cell or tissue culture systems. Such in vitro culture methodologies are available and useable by those trained in the art for the propagation and quantitative measurement of the replication of several pestiviruses and flaviviruses. The following procedure was used for the in vitro quantitative measure of BVDV replication.
Using the procedure described in this example, compounds of the invention were evaluated for their ability to inhibit the replication of the virus in cell culture. By adding compounds at various concentrations to the culture medium, a dose response effect of the compound on virus replication can be determined. A useful quantitative measure of the inhibition of BVDV replication in this assay is the concentration of the compound at which virus replication in cell culture is inhibited by 50% in comparison to that observed in the absence of the compound (50% Inhibitory Concentration, IC50).
Anti-pestivirus compounds of the invention were screened for antiviral activity against BVDV on Madin Darby bovine kidney (MDBK) cells in a cell culture assay. Standard 96-well culture plates were seeded with 1 to 2×10^4 MDBK cells in 200 uL of Dulbeccos-modified Eagle's medium (DMEM) supplemented with 5% horse serum so as to obtain a monolayer of cells at 60% confluence. Six hours later, the medium was removed and the cell monolayers in each well were infected with 150 uL solution of BVDV (strain NADL) (M. S. Collett et al., Virology 165:191-199 (1988)) in DMEM supplemented with 2% horse serum previously titrated to yield 85-100% destruction (cytopathic effect) of the cell monolayer 36-40 hours after infection.
To determine the IC50 values of compounds tested in this experiment, ten serial 2-fold dilutions of test compounds were prepared in DMSO solvent at a compound concentration 200 times that desired for the highest final test concentration. The test compound-DMSO solutions were diluted 50-fold into DMEM containing 2% horse serum. Fifty uL of this dilution was added to the 150 uL volume present in the wells of the virus-infected plate, yielding a final DMSO concentration in each well of 0.5%. Virus control (VC; no test compound) and cell culture control (CC; no virus and no test compound) wells were included on each 96-well plate. Assay points were conducted in replicate, usually in quadruplicate. Plates were then incubated at 37° C. in a humidified atmosphere containing 2.5% carbon dioxide for 36-40 hours. At the end of the incubation period, 100 uL of a 5% solution of glutaraldehyde in water was added to each well and the wells were incubated at room temperature for 1 hour. The fixative was removed, and the cells were stained with a 0.1% solution of crystal violet in water for 15-30 minutes. After rinsing and drying the plates, the optical density of the wells was measured at 570 nm (OD570).
To determine IC50 values for the test compounds, the mean value of the OD570 readings of the virus control wells (VC) on a plate was subtracted from the OD570 readings of all wells on that plate. The IC50 values were then calculated according to the following formula: [formula]
where Y represents the mean OD570 reading of the cell control wells (CC) divided by 2; B represents the mean OD570 reading of wells of the compound dilution nearest to and below Y; A represents the mean OD570 reading of wells of the compound dilution nearest to and above Y; L represents the compound concentration at B; and H represents the compound concentration at A.

[1] = test system: Respiratory syncytial virus; test: microbe, parasite or virus in culture; format: cell-based; details: read-out: IC50 Respiratory syncytial virus
Influenza A virus = test: microbe, parasite or virus in culture; format: cell-based; details: read-out: IC50 Influenza A virus
Coxsackie B3 virus = test: microbe, parasite or virus in culture; format: cell-based
[2] = test system: Herpes simplex virus type 2; test: microbe, parasite or virus in culture; format: cell-based
BVDV-infected MDBK cells = format: cell-based, bovine viral diarrhea virus; details: read-out: IC50 evaluated with the spiked mouse reference serum
normal cells = details: highest concentration giving optical density ≧75% of control, MTT, 68 hours
Description: This assay measures cell viability, and therefore cytotoxicity, by quantitatively detecting the in situ reduction of 3-(4,5-dimethylthiazol-2-yl)-2,5-diphenyltetrazolium bromide (MTT) by viable cells. Cells are seeded in 96-well plates in DMEM containing 2% horse serum at a density of 4×10^3 cells per well. After incubation for 4 hours at 37° C. and 5% CO2, 2-fold serial dilutions of compound in 1% DMSO (or solvent alone) are added to quadruplicate wells and the plates are incubated for an additional 68 hours at 37° C. and 5% CO2, which is equivalent to 3 to 4 cell doublings. The culture medium is removed, and the cells are treated with 1 mg/ml of MTT in phosphate-buffered saline, pH 7.2 for 4 hours at 37° C. and 5% CO2. After removal of the unreduced MTT, the reduced blue formazan crystals produced by the viable cells are solubilized by the addition of 0.04N HCl in isopropanol. The absorbance at 570 nm (A570) of each well is read using a suitable microplate reader. Cell viability is expressed as the percentage of optical density for compound-treated cells relative to the optical density of solvent alone-treated control wells. The highest compound concentration resulting in an optical density of ≧75% of the control is represented as the cellular cytotoxicity value (CC75).

[3] = test system: female Swiss Webster mice; details: mouse, in vivo, po
Description: (§1) Doses above this level are overtly toxic or fatal to the animal.
(§2) To assess the safety of compounds of the invention, the methyl cellulose formulations of compounds of the invention were administered to laboratory mice. A single dose of each compound in a 0.5 mL volume was administered by oral gavage to groups of test animals, each consisting of five female Swiss Webster mice 8 to 9 weeks of age and weighing 25 to 30 g. The MTD was determined by administering increasing doses of compound and assessing animal survival over a 7 day period.

[4] = mouse, in vivo, po
[5] = test system: female Swiss Webster mice; test: Animal safety study: maximum tolerated dose after single oral dose; details: mice; for MTD: single oral dose, survival over 7 days
Description: as §1, §2

[6] = as above; details: female, Swiss Webster, mouse, in vivo, po
Description: as §1, §2

[7] = Bovine viral diarrhea virus isolates and strains, BVDV strain NADL on MDBK cells, 36-40 hours, read-out: IC50
[8] = single oral gavage dose 21 mg/kg
[9] = single oral gavage dose 71 mg/kg
[10] = single oral gavage dose 214 mg/kg
[11] = single oral gavage dose 710 mg/kg
[12] = Bovine viral diarrhea virus isolates and strains, BVDV, read-out: IC50 determined in cell culture
[13] = Bovine viral diarrhea virus isolates and strains, Table 3 specificity panel, BVDV, read-out: IC50 BVDV
[14] = Bovine viral diarrhea virus isolates and strains, antiviral IC50 against BVDV, Table 4, read-out: IC50
[15] = human respiratory syncytial virus
[16] = Enterovirus B, B3, read-out: IC50 Coxsackie B3 virus
[17] = Human alphaherpesvirus 2, read-out: IC50 Herpes simplex virus type 2

Compound: CC(C)N(CCSc1nnc2c(n1)[nH]c1ccccc12)C(C)C [Example 3]
- IC50 (BVDV (strain NADL); [7]): 3100 nM

Compound: c1ccc2c(c1)[nH]c1nc(SCCCN3CCCCC3)nnc12 [Example 8]
- IC50 (BVDV (strain NADL); [7]): 4400 nM

Compound: Brc1ccc2[nH]c3nc(SCCN4CCCCCC4)nnc3c2c1 [Example 22]
- IC50 (BVDV (strain NADL); [7]): 42 nM

Compound: Cc1ccc2[nH]c3nc(SCCN4CCCCCC4)nnc3c2c1 [Example 20]
- IC50 (BVDV (strain NADL); [7]): 7 nM

Compound: Clc1cc(CSc2nnc3c(n2)[nH]c2ccccc23)cc(Cl)n1 [Example 17]
- IC50 (BVDV (strain NADL); [7]): 1400 nM

Compound: CCCN(CCC)CCSc1nnc2c(n1)[nH]c1ccccc12 [Example 1, 3-[((2-dipropylamino)ethyl)thio]-5H-1,2,4-triazino[5,6-b]indole]
- IC50 (BVDV (strain NADL); read-out: IC50): 6 nM
- IC50 (BVDV (strain NADL); read-out: IC50 BVDV): 6 nM
- IC50 (BVDV (strain NADL); read-out: IC50 determined in cell culture): 6 nM
- IC50 [1]: > 50000 nM
- IC50 (Influenza A virus): > 50000 nM
- IC50 (Coxsackie B3 virus; read-out: IC50 Coxsackie B3 virus): > 50000 nM
- IC50 ([2]; read-out: IC50 Herpes simplex virus type 2): > 50000 nM
- IC50 (BVDV-infected MDBK cells): 3.5 nM
- CC75 (normal cells): 2000 nM
- MTD [3]: greater than or equal to the highest dose tested
- Concentration Of Drug Measured In Serum Post Drug Administration 30 Min. ([4]; 21 mg/kg): 100 nM
- Concentration Of Drug Measured In Serum Post Drug Administration 90 Min. ([4]; 21 mg/kg): 70 nM
- Concentration Of Drug Measured In Serum Post Drug Administration 30 Min. ([4]; 214 mg/kg): 1100 nM
- Concentration Of Drug Measured In Serum Post Drug Administration 90 Min. ([4]; 214 mg/kg): 600 nM
- MTD [5]: ≧710 mg/kg
- #Survivors (alive at Day 7) [5, 8]: 5/5
- #Survivors (alive at Day 7) [5, 9]: 5/5
- #Survivors (alive at Day 7) [5, 10]: 5/5
- #Survivors (alive at Day 7) [5, 11]: 5/5

Compound: CCC1CCN(CCSc2nnc3c(n2)[nH]c2ccccc23)CC1 [Example 15]
- IC50 (BVDV (strain NADL); [7]): > 3000 nM

Compound: COc1cc2oc(=O)cc(CSc3nnc4c(n3)[nH]c3ccccc34)c2cc1OC [Example 13]
- IC50 (BVDV (strain NADL); [7]): 1700 nM

Compound: Fc1ccc2[nH]c3nc(SCCN4CCCCCC4)nnc3c2c1 [Example 23]
- IC50 (BVDV (strain NADL); [7]): 14 nM

Compound: Fc1ccc2[nH]c3nc(SCCN4CCCCC4)nnc3c2c1 [Example 27]
- IC50 (BVDV (strain NADL); [7]): 21 nM

Compound: CCCCN(CCCC)CCSc1nnc2c(n1)[nH]c1ccccc12 [Example 12]
- IC50 (BVDV (strain NADL); [7]): 10 nM

Compound: Brc1ccc2[nH]c3nc(SCCN4CCCCC4)nnc3c2c1 [Example 21]
- IC50 (BVDV (strain NADL); [7]): 36 nM

Compound: c1ccc2c(c1)[nH]c1nc(SCCN3CCOCC3)nnc12 [Example 11]
- IC50 (BVDV (strain NADL); [7]): 1200 nM

Compound: c1ccc2c(c1)[nH]c1nc(SCCN3CCCCC3)nnc12 [Example 7]
- IC50 (BVDV (strain NADL); [7]): 60 nM
- IC50 (BVDV (strain NADL); [12]): 60 nM
- IC50 (BVDV (strain NADL); [13]): 60 nM
- IC50 (BVDV (strain NADL); [14]): 60 nM
- IC50 [1, 15]: > 50000 nM
- IC50 (Influenza A virus; Influenza A virus): > 50000 nM
- IC50 (Coxsackie B3 virus; [16]): > 50000 nM
- IC50 [2, 17]: > 50000 nM
- CC75 (normal cells): 12500 nM
- Concentration Of Drug Measured In Serum Post Drug Administration 30 Min. ([4]; Swiss Webster, 21 mg/kg): <1500 nM
- Concentration Of Drug Measured In Serum Post Drug Administration 90 Min. ([4]; Swiss Webster, 21 mg/kg): <1500 nM
- Concentration Of Drug Measured In Serum Post Drug Administration 30 Min. ([4]; Swiss Webster, 214 mg/kg): 46000 nM
- Concentration Of Drug Measured In Serum Post Drug Administration 90 Min. ([4]; Swiss Webster, 214 mg/kg): 36200 nM
- MTD at 7 day [6]: ≥ 710 mg/kg
- MTD [5]: greater than or equal to the highest dose tested
- #Survivors (alive at Day 7) [5, 8]: 5/5
- #Survivors (alive at Day 7) [5, 9]: 5/5
- #Survivors (alive at Day 7) [5, 10]: 5/5
- #Survivors (alive at Day 7) [5, 11]: 5/5

Compound: CCCN(CCC)CCSc1nnc2c(n1)[nH]c1ccc(N)cc12 [Example 26]
- IC50 (BVDV (strain NADL); [7]): 10 nM

Compound: COc1ccc2[nH]c3nc(SCCN4CCOCC4)nnc3c2c1 [Example 25]
- IC50 (BVDV (strain NADL); [7]): 2000 nM

Compound: c1ccc2c(c1)OCC(CSc1nnc3c(n1)[nH]c1ccccc13)O2 (stereo not shown) [Example 16]
- IC50 (BVDV (strain NADL); [7]): 2500 nM

Compound: CCCN(CCC)CCSc1nnc2c(n1)[nH]c1ccccc12 [Example 19]
- IC50 (BVDV (strain NADL); [7]): 2 nM

Compound: Cc1ccc2[nH]c3nc(SCCN4CCCCC4)nnc3c2c1 [Example 24]
- IC50 (BVDV (strain NADL); [7]): 13 nM

Compound: N#CC1CCN(CCSc2nnc3c(n2)[nH]c2ccccc23)CC1 [Example 14]
- IC50 (BVDV (strain NADL); [7]): 1800 nM

Compound: c1ccc2c(c1)[nH]c1nc(SCCN3CCCC3)nnc12 [Example 6]
- IC50 (BVDV (strain NADL); [7]): 500 nM

Compound: c1ccc2c(c1)[nH]c1nc(SCCN3CCCCCC3)nnc12 [Example 9]
- IC50 (BVDV (strain NADL); [7]): 30 nM
- IC50 (BVDV (strain NADL); [12]): 30 nM
- IC50 (BVDV (strain NADL); [13]): 30 nM
- IC50 (BVDV (strain NADL); [14]): 30 nM
- IC50 [1, 15]: > 50000 nM
- IC50 (Influenza A virus; Influenza A virus): > 50000 nM
- IC50 (Coxsackie B3 virus; [16]): > 50000 nM
- IC50 [2, 17]: > 50000 nM
- CC75 (normal cells): 25000 nM
- Concentration Of Drug Measured In Serum Post Drug Administration 30 Min. ([4]; Swiss Webster, 21 mg/kg): 700 nM
- Concentration Of Drug Measured In Serum Post Drug Administration 90 Min. ([4]; Swiss Webster, 21 mg/kg): <200 nM
- Concentration Of Drug Measured In Serum Post Drug Administration 30 Min. ([4]; Swiss Webster, 214 mg/kg): 19600 nM
- Concentration Of Drug Measured In Serum Post Drug Administration 90 Min. ([4]; Swiss Webster, 214 mg/kg): 8500 nM
- MTD at 7 day [6]: 214 mg/kg
- #Survivors (alive at Day 7) [5, 8]: 5/5
- #Survivors (alive at Day 7) [5, 9]: 5/5
- #Survivors (alive at Day 7) [5, 11]: 0/5

Compound: CN(C)CCSc1nnc2c(n1)[nH]c1ccccc12 [Example 5]
- IC50 (BVDV (strain NADL); [7]): 5500 nM

Compound: CCN(CC)CC(C)Sc1nnc2c(n1)[nH]c1ccccc12 (stereo not shown) [Example 2]
- IC50 (BVDV (strain NADL); [7]): 300 nM

Compound: CC(CN(C)C)Sc1nnc2c(n1)[nH]c1ccccc12 (stereo not shown) [Example 4]
- IC50 (BVDV (strain NADL); [7]): 3700 nM

Compound: c1ccc2c(c1)[nH]c1nc(SCc3ccncc3)nnc12 [Example 10]
- IC50 (BVDV (strain NADL); [7]): 4000 nM

Compound: c1ccc2c(c1)[nH]c1nc(SCCCCOC3CCCCO3)nnc12 (stereo not shown) [Example 18]
- IC50 (BVDV (strain NADL); [7]): > 3000 nM
